Data on 1 molecule can be found in paper PMC10706087, “The Subtype Selectivity in Search of Potent Hypotensive Agents among 5,5-Dimethylhydantoin Derived α1-Adrenoceptors Antagonists” (International Journal of Molecular Sciences, 2023).

The target in data set [1] is α1-adrenoceptors (α1-ARs), rat cerebral cortex. In words: Radioligand binding assay with [3H]-prazosin, affinity for α1-ARs. The conditions noted are these: three independent experiments in duplicates, read-out: α1-adrenoceptor affinity Ki. As to the method: In the first step, all synthesized compounds (1–15) were tested in vitro for their affinity for α1-ARs on rat cerebral cortex by the radioligand binding assay using [^3H]-prazosin as a specific radioligand.
The affinity for α1-ARs was determined by radioligand binding assay on rat cerebral cortex using [3H]-prazosin as a specific radioligand. The brains were homogenized in 20 volumes of an ice-cold 50 mM Tris-HCl buffer (pH 7.6) and were centrifuged (MPW Med. Instruments, Warsaw, Poland) at 20,000× g for 20 min (0–4 °C). The cell pellet was resuspended in the Tris-HCl buffer and centrifuged again. Radioligand-binding assay was performed in plates (MultiScreen/Millipore, Burlington, MA, USA). The final incubation mixture (final volume 300 μL) consisted of 240 μL of the membrane suspension, 30 μL of [3H]-Prazosin (0.2 nM) solution, and 30 μL of the buffer containing seven to eight concentrations (10^−11 to 10^−4 M) of the tested compounds. For measuring the unspecific binding, phentolamine, 10 μM (in the case of [3H]-Prazosin) was applied. The incubation was terminated by rapid filtration over glass fiber filters (Whatman GF/C, Sigma-Aldrich) using a vacuum manifold (Millipore). The filters were then washed twice with the assay buffer and placed in scintillation vials with a liquid-scintillation cocktail. Radioactivity was measured in a WALLAC 1409 DSA liquid-scintillation counter (BioSurplus, San Diego, CA, USA).
All statistics were performed using GraphPad Prism, Version 6.0 (GraphPad Software, San Diego, CA, USA). In the radioligand binding study, data were analyzed by a one-site curve-fitting equation, and inhibition constants (Ki) values were calculated via the Cheng-Prusoff equation [63]. In functional studies, data were analyzed using a sigmoidal dose-response (variable slope) equation. Arterial blood pressure data were analyzed using a two-way ANOVA with Sidak’s post-hoc test for multiple comparisons. A p < 0.05 was considered statistically significant.

What is called Ki is the dissociation constant of the complex between target and ligand, obtained from inhibition or displacement. In general, melting point refers to the temperature of the solid-liquid transition. In the case of `CC1(C)C(=O)N(Cc2ccc(Cl)cc2Cl)C(=O)N1CC(O)CN1CCN(c2ccc(Cl)c(Cl)c2)CC1.Cl` (centres unmarked) [Compound 10, 3-(2,4-dichlorobenzyl)-1-(3-(4-(3,4-dichlorophenyl)piperazin-1-yl)-2-hydroxypropyl)-5,5-dimethylimidazolidine-2,4-dione hydrochloride], the melting point fell in the range of 223 to 225 °C. The Ki in data set [1] came out at 778 nM.
